Experimental data as given in ChEMBL document CHEMBL5291721, “A preclinical secondary pharmacology resource illuminates target-adverse drug reaction associations of marketed drugs” (Nat Commun, 2023).

Legend:
Histamine H3 receptor = Histamine H3 receptor (Homo sapiens, UniProt Q9Y5N1)
Estrogen receptor = biological target: T1, Estrogen receptor (Homo sapiens, UniProt P03372)
T1 sequence (P03372 whole entry): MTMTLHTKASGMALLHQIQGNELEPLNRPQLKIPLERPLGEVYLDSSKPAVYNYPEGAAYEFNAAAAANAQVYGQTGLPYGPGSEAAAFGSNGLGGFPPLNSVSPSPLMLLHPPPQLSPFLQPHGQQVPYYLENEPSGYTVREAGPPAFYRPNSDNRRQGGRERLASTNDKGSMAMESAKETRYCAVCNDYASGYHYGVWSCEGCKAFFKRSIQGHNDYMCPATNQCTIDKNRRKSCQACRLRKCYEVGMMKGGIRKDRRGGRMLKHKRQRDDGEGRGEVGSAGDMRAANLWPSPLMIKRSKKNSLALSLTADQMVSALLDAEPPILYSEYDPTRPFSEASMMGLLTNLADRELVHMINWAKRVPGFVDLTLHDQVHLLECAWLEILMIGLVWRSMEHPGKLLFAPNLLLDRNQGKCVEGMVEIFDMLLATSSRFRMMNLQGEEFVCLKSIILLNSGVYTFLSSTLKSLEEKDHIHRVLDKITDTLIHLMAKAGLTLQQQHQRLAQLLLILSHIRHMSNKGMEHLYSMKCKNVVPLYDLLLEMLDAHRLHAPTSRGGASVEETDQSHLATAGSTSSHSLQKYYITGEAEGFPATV

[1] = biological target: T2, Alpha-2C adrenergic receptor (Homo sapiens, UniProt P18825); assay type: functional
T2 sequence (P18825 whole entry): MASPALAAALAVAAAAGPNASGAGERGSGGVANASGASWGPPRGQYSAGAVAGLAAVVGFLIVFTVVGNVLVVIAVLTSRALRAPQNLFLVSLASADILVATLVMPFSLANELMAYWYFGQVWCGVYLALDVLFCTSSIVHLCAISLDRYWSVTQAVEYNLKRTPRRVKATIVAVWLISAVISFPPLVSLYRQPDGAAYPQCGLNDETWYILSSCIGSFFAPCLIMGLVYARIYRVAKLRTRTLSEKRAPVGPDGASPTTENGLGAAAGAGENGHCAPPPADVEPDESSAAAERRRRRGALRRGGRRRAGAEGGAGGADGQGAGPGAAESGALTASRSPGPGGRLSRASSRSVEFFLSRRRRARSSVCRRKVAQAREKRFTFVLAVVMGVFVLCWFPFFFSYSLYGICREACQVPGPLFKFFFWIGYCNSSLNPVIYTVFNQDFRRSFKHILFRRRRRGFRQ

[2] = biological target: T3, Alpha-2B adrenergic receptor (Homo sapiens, UniProt P18089)
T3 sequence (P18089 whole entry): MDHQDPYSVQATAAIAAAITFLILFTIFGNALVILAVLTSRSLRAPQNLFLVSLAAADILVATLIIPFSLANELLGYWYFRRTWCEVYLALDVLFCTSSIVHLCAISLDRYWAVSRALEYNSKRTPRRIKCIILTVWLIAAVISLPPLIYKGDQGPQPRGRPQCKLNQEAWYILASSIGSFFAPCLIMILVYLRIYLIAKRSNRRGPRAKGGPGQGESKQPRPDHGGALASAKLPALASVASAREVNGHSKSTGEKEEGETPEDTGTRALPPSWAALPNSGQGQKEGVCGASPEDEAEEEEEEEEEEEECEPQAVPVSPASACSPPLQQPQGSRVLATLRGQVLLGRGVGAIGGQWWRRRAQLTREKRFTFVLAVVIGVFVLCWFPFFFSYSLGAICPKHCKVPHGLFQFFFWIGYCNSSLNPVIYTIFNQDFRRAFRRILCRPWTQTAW

Progesterone receptor = biological target: T4, Progesterone receptor (Homo sapiens, UniProt P06401); assay type: functional
T4 sequence (P06401 whole entry): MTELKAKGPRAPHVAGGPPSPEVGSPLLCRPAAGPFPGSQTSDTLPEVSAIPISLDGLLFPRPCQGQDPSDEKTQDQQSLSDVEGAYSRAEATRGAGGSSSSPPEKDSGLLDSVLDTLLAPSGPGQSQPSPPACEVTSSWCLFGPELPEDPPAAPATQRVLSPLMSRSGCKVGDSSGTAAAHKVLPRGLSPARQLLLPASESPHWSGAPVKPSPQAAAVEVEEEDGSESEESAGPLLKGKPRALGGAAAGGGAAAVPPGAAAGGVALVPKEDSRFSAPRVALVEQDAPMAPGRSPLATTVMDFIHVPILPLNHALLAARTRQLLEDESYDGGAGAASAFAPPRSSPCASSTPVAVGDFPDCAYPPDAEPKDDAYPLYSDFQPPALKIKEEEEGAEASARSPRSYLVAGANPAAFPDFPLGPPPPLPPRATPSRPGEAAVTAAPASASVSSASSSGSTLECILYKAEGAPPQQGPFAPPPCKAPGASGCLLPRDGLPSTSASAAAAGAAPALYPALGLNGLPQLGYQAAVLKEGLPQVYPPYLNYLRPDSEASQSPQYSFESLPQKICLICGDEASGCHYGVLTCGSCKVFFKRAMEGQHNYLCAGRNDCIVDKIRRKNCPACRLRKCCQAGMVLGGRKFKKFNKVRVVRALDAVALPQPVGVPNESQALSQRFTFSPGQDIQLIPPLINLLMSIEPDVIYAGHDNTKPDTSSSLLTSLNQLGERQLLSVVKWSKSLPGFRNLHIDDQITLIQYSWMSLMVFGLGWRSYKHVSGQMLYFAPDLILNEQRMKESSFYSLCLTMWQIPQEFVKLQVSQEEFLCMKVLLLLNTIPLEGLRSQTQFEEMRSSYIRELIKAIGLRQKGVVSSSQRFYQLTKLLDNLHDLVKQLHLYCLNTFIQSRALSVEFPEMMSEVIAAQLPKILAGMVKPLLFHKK

Mu-type opioid receptor = Mu-type opioid receptor (Homo sapiens, UniProt P35372); experiment: biochemical; assay type: functional
[3] = biological target: 5-hydroxytryptamine receptor 2A (Homo sapiens, UniProt P28223); assay type: functional, cell-based
Note: assay procedure not described here.

Histamine H3 receptor, sequence (Q9Y5N1 whole entry): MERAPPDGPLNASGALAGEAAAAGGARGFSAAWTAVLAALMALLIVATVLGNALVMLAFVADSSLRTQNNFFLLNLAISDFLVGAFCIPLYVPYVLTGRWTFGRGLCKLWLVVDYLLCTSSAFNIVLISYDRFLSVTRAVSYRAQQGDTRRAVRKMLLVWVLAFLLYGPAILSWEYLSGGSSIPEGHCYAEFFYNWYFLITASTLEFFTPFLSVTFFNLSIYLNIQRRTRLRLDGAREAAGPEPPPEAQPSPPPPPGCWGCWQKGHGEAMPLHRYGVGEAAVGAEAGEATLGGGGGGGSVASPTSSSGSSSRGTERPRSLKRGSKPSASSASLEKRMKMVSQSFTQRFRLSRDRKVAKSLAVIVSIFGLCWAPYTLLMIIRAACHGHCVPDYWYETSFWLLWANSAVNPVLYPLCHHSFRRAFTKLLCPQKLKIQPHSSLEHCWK
Mu-type opioid receptor, sequence (P35372 whole entry): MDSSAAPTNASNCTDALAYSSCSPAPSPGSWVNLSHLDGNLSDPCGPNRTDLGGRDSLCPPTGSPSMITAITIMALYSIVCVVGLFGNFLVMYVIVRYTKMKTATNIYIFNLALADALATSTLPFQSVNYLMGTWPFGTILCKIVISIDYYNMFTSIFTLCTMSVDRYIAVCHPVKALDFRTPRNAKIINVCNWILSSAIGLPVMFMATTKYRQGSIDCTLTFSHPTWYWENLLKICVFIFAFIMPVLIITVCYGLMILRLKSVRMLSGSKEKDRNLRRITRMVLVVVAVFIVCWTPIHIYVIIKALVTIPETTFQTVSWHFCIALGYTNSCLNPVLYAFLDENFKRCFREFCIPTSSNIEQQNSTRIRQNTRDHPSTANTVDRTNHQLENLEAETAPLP
5-hydroxytryptamine receptor 2A, sequence (P28223 whole entry): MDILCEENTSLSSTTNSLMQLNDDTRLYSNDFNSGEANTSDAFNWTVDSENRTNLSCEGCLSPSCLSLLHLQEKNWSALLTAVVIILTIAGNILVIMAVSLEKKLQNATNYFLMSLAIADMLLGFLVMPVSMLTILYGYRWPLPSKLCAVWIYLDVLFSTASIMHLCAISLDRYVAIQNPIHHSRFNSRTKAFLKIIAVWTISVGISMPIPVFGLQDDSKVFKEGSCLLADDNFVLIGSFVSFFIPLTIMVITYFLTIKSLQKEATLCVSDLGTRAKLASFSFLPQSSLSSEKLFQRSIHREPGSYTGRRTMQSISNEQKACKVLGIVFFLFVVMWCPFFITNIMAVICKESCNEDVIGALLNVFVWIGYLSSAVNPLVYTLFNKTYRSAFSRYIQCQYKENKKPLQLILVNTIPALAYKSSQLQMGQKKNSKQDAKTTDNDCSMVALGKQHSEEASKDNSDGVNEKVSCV

| Compound | AC50 (Histamine H3 receptor) [µM] | AC50 (Estrogen receptor) [µM] | AC50 [1] [µM] | AC50 [2] [µM] | AC50 (Progesterone receptor) [µM] | AC50 (Mu-type opioid receptor) [µM] | AC50 [3] [µM] |
| --- | --- | --- | --- | --- | --- | --- | --- |
| CCC(=O)OCC(=O)[C@@]1(OC(=O)CC)[C@@H](C)C[C@H]2[C@@H]3CCC4=CC(=O)C=C[C@]4(C)[C@@]3(F)[C@@H](O)C[C@@]21C [BETAMETHASONE DIPROPIONATE] | > 30 | > 10 | > 30 | > 30 | 0.3 | > 30 | > 30 |
| Cc1ccc2c(-c3ccccc3)nc(=O)n(C(C)C)c2c1 [PROQUAZONE] | > 30 | > 30 | > 30 | > 30 | > 30 | > 30 | > 30 |
| CN1CCN(c2c(F)cc3c(=O)c(C(=O)O)cn4c3c2SCC4)CC1 [RUFLOXACIN] | > 30 | – | > 30 | 9.8 | > 30 | > 30 | > 30 |
| CC(=O)c1ccc2c(c1)N(CCCN1CCC(CCO)CC1)c1ccccc1S2 [PIPERACETAZINE] | > 30 | > 30 | 0.37 | 0.068 | > 30 | > 30 | > 30 |
| CCCN(CC)C(CC)C(=O)Nc1c(C)cccc1C (stereo not given) [ETIDOCAINE] | > 30 | > 30 | > 30 | > 30 | > 30 | > 30 | > 30 |
| COLISTIN | – | – | > 30 | > 30 | – | > 30 | > 30 |
| CCN(CC)CCOC(=O)c1ccc(N)cc1Cl [CHLOROPROCAINE] | 4 | > 30 | > 30 | > 30 | > 30 | > 30 | > 30 |
| CC(=O)OCC(=O)[C@@]1(O)CC[C@H]2[C@@H]3CCC4=CC(=O)CC[C@]4(C)C3=CC[C@@]21C [ANECORTAVE ACETATE] | > 10 | > 30 | > 10 | > 10 | > 30 | – | > 10 |
| CC(C)OC(=O)C(C(=O)OC(C)C)=C1SC=CS1 [MALOTILATE] | > 30 | – | > 30 | > 30 | > 30 | > 30 | > 30 |
| C=CC(N)CCC(=O)O (stereo not given) [VIGABATRIN] | > 10 | > 10 | > 10 | > 10 | > 10 | – | > 10 |
| O=C(O)c1ccccc1Nc1cccc(C(F)(F)F)c1 [FLUFENAMIC ACID] | > 10 | > 30 | > 10 | > 10 | – | > 30 | > 30 |
| CCOC(=O)Nc1ccc2c(c1)N(C(=O)CCN1CCOCC1)c1ccccc1S2 [MORICIZINE] | > 30 | > 30 | > 30 | > 30 | > 30 | – | > 30 |
| N#C[C@@H]1CCCN1C(=O)CNC12CC3CC(CC(O)(C3)C1)C2 [VILDAGLIPTIN] | > 10 | > 30 | > 30 | > 30 | – | > 30 | > 30 |
| COc1c(O[C@@H]2O[C@H](CO)[C@@H](O)[C@H](O)[C@H]2O)cc2c(c1OC)-c1ccc(SC)c(=O)cc1[C@@H](NC(C)=O)CC2 [THIOCOLCHICOSIDE] | > 30 | – | > 30 | > 30 | > 30 | > 30 | > 30 |
| CC(=O)O[C@H]1C[C@@H]2CC[C@@H]3[C@H](CC[C@@]4(C)[C@H]3C[C@H]([N+]3(C)CCCCC3)[C@@H]4OC(C)=O)[C@@]2(C)C[C@@H]1[N+]1(C)CCCCC1 [PANCURONIUM] | – | > 10 | > 10 | > 10 | > 10 | > 30 | > 10 |
| CC(CCc1ccccc1)NC(C)C(O)c1ccc(O)cc1 (stereo not given) [NYLIDRIN] | > 10 | > 30 | 0.64 | 0.73 | – | – | > 30 |
| COCCOC(=O)C1=C(C)NC(C)=C(C(=O)OC/C=C/c2ccccc2)C1c1cccc([N+](=O)[O-])c1 (stereo not given) [CILNIDIPINE] | > 30 | – | > 30 | > 30 | > 30 | > 30 | > 30 |
| CCN(CC)CC(=O)Oc1ccc(NC(C)=O)cc1 [PROPACETAMOL] | > 30 | – | > 30 | > 30 | > 30 | > 30 | > 30 |
| NC(=O)CCC/N=C(\c1ccc(Cl)cc1)c1cc(F)ccc1O [PROGABIDE] | > 10 | > 10 | > 10 | > 10 | > 10 | – | > 10 |
| CCCC(C)(COC(N)=O)COC(=O)NC(C)C (stereo not given) [CARISOPRODOL] | > 10 | > 30 | > 10 | > 10 | – | – | > 30 |
| CC1(C)C(C=C(Cl)Cl)C1C(=O)OCc1cccc(Oc2ccccc2)c1 (stereo not given) [PERMETHRIN] | > 10 | > 30 | > 10 | > 10 | > 30 | – | > 10 |
| CC(=O)Nc1c(I)c(C(=O)N[C@H]2C(O)O[C@H](CO)[C@@H](O)[C@@H]2O)c(I)c(N(C)C(C)=O)c1I (stereo not given in full) [METRIZAMIDE] | – | > 10 | > 10 | > 10 | > 10 | – | > 10 |
| CC[N+]1(C)CCCC(OC(=O)C(O)(c2ccccc2)c2ccccc2)C1 (stereo not given) [PIPENZOLATE] | > 30 | – | > 30 | > 30 | > 30 | > 30 | > 30 |
| C=CC1=C(C(=O)O)N2C(=O)[C@@H](NC(=O)/C(=N\OCC(=O)O)c3csc(N)n3)[C@H]2SC1 [CEFIXIME] | > 30 | > 30 | > 30 | – | > 30 | > 30 | > 30 |
| C=C[C@@]1(C)CC(=O)[C@]2(O)[C@@]3(C)[C@@H](O)CCC(C)(C)[C@@H]3[C@H](OC(=O)CCN(C)C)[C@H](OC(C)=O)[C@@]2(C)O1 | > 30 | – | > 30 | > 30 | > 30 | > 30 | > 30 |
